Source: US7282556B2, “Polynucleotides and polypeptides relating to the modulation of SIRPα-CD47” (Emory University, priority 2001, dated 2007)
In brackets after ≈: the same amount, converted by molar mass. Where a SMILES comes first, the peptide text is derived from it. Bridges are numbered along the chain shown (N, C = ends).

Columns and labels:
[1] = Solubility of synthesized peptides in aqueous phase; assay type: physicochemical; settings: for solubility: in aqueous phase
SIRPβ-GST = target: T1, SIRPβ-GST (Homo sapiens, UniProt O00241); experiment: CD47-AP binding to SIRPβ-GST coated wells; settings: FIG. 2C
T1 construct: The extracellular domain of SIRPα1, SIRPβ1 and GST fusion proteins were produced after transfected into 293E cells; made in house; host or cells: 293E cells
T1 sequence (O00241 30-371 limits assumed): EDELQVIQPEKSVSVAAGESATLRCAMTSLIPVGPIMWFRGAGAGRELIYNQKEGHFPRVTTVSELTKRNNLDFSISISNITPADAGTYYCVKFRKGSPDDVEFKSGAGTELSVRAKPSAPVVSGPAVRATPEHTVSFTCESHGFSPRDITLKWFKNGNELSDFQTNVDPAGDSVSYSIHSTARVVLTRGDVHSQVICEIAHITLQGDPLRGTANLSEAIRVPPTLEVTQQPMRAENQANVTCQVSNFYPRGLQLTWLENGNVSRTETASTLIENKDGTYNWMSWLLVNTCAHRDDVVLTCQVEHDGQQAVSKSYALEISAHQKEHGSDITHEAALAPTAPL
Protocol: (§1) FIG. 2C (right panel) is a bar graph that illustrates CD47-AP specifically binds to SIRPα-GST fusion protein but not SIRPβ-GST. In this panel, microtiter plates were coated with either SIRPα-GST or highly similar SIRPβ-GST (10 μg/ml) followed by blocking with BSA. To each well was then added recombinant CD47-AP followed by washing. Bound CD47-AP was then detected by assay for alkaline phosphatase after addition of appropriate substrate.
Since the above results and those of others (Jiang, et al J. Biol. Chem., 274: 559, Seiffert, et al., Blood, 94: 3633, Han, et al., J. Biol. Chem., 275: 37984, Oldenborg, et al., Science, 288: 2051) strongly implicate CD47 as a membrane receptor for SIRPα, experiments were performed to test the direct binding of the IgV loop of CD47 to SIRPα (FIG. 2B). A recombinant CD47 IgV loop fused to alkaline phosphatase (CD47-AP) was constructed as detailed in the methods and expressed in mammalian (CHO) cells in order to allow for proper folding and glycosylation. The expressed CD47-AP fusion protein was then purified by immunoaffinity chromatography using anti CD47 mAb PF3.1-Sepharose. The structure of CD47 IgV domain in the purified CD47-AP was further tested for the ability to react with multiple functionally blocking anti-CD47 extracellular domain-reactive mAbs (Liu, et al., J. Biol. Chem., 276: 40156). […]

[2] = target: T2, CD47-SIRPα1 binding (CD47-AP / SIRPα1-GST) (Homo sapiens, UniProt P78324); experiment: CD47-AP binding to immobilized SIRPα1-GST (alkaline phosphatase activity); settings: SIRPα-GST coated 2 μg/ml, CD47-AP 1-2 μg/ml
T2 construct: Microtiter plates were coated with SIRPα1 extracellular domain fusion protein (SIRPα1-GST, 1 μg/ml) for 2 hr; A construct consisting of the extracellular domain of human CD47 fused to the catalytic domain of human placental AP; made in house
T2 sequence (P78324 31-373 limits assumed): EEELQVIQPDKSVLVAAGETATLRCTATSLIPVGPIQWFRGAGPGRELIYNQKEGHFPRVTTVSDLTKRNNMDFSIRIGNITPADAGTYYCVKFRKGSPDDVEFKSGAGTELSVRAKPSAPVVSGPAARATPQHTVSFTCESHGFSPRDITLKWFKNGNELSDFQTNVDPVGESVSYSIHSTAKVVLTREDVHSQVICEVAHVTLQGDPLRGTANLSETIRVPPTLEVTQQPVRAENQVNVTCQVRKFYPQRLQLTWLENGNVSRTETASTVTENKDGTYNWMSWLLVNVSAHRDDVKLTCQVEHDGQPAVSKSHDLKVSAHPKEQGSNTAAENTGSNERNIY
Protocol: as §1
FIGS. 6A-6C are graphs that illustrate the effects of synthetic peptides on CD47-SIRPα binding. FIG. 6A illustrates the effect of peptide C5/D5.1 on CD47-SIRPα binding. […] After blocking, CD47-AP was added in the absence or presence of synthetic peptides C5/D5.1 and control peptides C5/D5.4, C5/D5.11 and C5/D5.12 (used as 1 mM each). “*” p<0.01. CD47-AP binding was then detected by assay of alkaline phosphatase activity and normalized with respect to binding in the absence of any peptide (CD47-AP only). FIG. 6B illustrates the effect of dose-dependent inhibition of CD47-SIRPα1 binding by peptide C5/D5.1 performed as in FIG. 6A but with increasing concentrations of peptide as indicated. […] Binding of these proteins were detected by a goat anti-GST antibody followed by peroxidase conjugated anti-goat secondary (for detecting SIRPα1-GST) or directly developed for alkaline phosphatase activity (for detecting CD47-AP). […]

mAb C5/D5 = experiment: Peptide competition of phage binding to C5/D5 by ELISA; settings: up to 10 mM
Protocol: To mimic the possible constrained structure in phage, in vitro oxidation was performed after peptide synthesis to introduce disulfide bonds between Cysteine residues in these peptides. […] There are total four tryptophan (W) residues in CD47. W2 is part of the signal peptide and therefore is not present in the mature protein. W58 is present in the N-terminus extracellular IgV-like domain of CD47 and is conserved among many IgV super family members. W136 is also located in the putative extracellular domain whereas W157 is thought to be in a transmembrane region of the protein (Lindberg, et al., J. Cell Biol., 123(2): 485-96, 1993). Amino acids Arginine and Valine (RV/L), present in many selected CL10 and LL9 phages are adjacent in CD47 at amino acid position 132-133, two amino acids upstream from W136. Both amino acids R and V are also found close to W58. Thus, the C5/D5-binding sequence on CD47 is likely to comprise several distant residues brought into proximity by the folding of the protein.
Antibody phage binding assays were performed in microtiter plate wells (Limbro-Titertek, Flow Laboratories) which were coated with relevant antibodies (20 μg/ml) for two hours at room temperature. All subsequent incubations were performed at room temperature. […] Microtiter wells were then analyzed in a microtiter plate reader at 405 nanometers (nm).

solubility [1] [mM]	Compound	also measured
10 (≈ 13.8 mg/mL)	CC[C@H](C)[C@@H]1NC(=O)[C@H](C(C)C)NC(=O)[C@H](CCCNC(=N)N)NC(=O)[C@H](CCC(=O)O)NC(=O)[C@@H](N)CSSC[C@@H](C(=O)O)NC(=O)[C@H](CCCNC(=N)N)NC(=O)[C@H](C(C)C)NC(=O)[C@H](Cc2c[nH]c3ccccc23)NC(=O)CNC(=O)[C@H]([C@@H](C)O)NC(=O)CNC1=O [C5/D5.1, CERVIGTGWVRC] (H-CERVIGTGWVRC-OH; disulfide 1-12; N-terminus and C-terminus assumed)	
10 (≈ 13.8 mg/mL)	CC[C@H](C)[C@@H]1NC(=O)[C@H](C(C)C)NC(=O)[C@H](CCCNC(=N)N)NC(=O)[C@H](Cc2c[nH]cn2)NC(=O)[C@@H](N)CSSC[C@@H](C(=O)O)NC(=O)[C@H](CCCNC(=N)N)NC(=O)[C@H](C(C)C)NC(=O)[C@H](Cc2c[nH]c3ccccc23)NC(=O)CNC(=O)[C@H]([C@@H](C)O)NC(=O)CNC1=O [C5/D5.11, CHRVIGTGWVRC] (H-CHRVIGTGWVRC-OH; disulfide 1-12; N-terminus and C-terminus assumed)	

Continued, compound first:

Compound	solubility [1] [mM]	also measured
CC[C@H](C)[C@H](NC(=O)[C@@H](NC(=O)[C@H](CCCNC(=N)N)NC(=O)[C@@H](N)CCC(=O)O)C(C)C)C(=O)NCC(=O)N[C@H](C(=O)NCC(=O)N[C@@H](Cc1c[nH]c2ccccc12)C(=O)N[C@H](C(=O)N[C@@H](CCCNC(=N)N)C(=O)O)C(C)C)[C@@H](C)O [C5/D5.4, ERVIGTGWVR] (H-ERVIGTGWVR-OH; N-terminus and C-terminus assumed)	10 (≈ 11.7 mg/mL)	
CC[C@H](C)[C@@H]1NC(=O)[C@H](C(C)C)NC(=O)CNC(=O)[C@H](CCCNC(=N)N)NC(=O)[C@H](Cc2c[nH]c3ccccc23)NC(=O)[C@H]([C@@H](C)O)NC(=O)[C@H](CCCNC(=N)N)NC(=O)[C@H](C(C)C)NC(=O)CNC(=O)[C@@H](N)CSSC[C@@H](C(=O)O)NC(=O)[C@H](CCC(=O)O)NC1=O [C5/D5.5, CGVRTWRGVIEC] (H-CGVRTWRGVIEC-OH; disulfide 1-12; N-terminus and C-terminus assumed)	2 (≈ 2.75 mg/mL)	solubility (in words) [1]: limited solubility
CC(C)[C@@H]1NC(=O)[C@H](Cc2c[nH]c3ccccc23)NC(=O)CNC(=O)[C@H](Cc2c[nH]cn2)NC(=O)CNC(=O)[C@@H]2CCCN2C(=O)[C@H](C(C)C)NC(=O)[C@H](CCCNC(=N)N)NC(=O)[C@H](Cc2c[nH]cn2)NC(=O)[C@@H](N)CSSC[C@@H](C(=O)O)NC(=O)[C@H](CCCNC(=N)N)NC1=O [C5/D5.12, CHRVPGHGWVRC] (H-CHRVPGHGWVRC-OH; disulfide 1-12; N-terminus and C-terminus assumed)	1 (≈ 1.4 mg/mL)	
CD47-AP: recombinant CD47 IgV loop fused to alkaline phosphatase		binding of CD47-AP to SIRPβ-GST (SIRPβ-GST): lack of binding; binding of AP fusion protein to SIRPα-GST (AP activity, OD405) [2]: bound
CRRVIGRVGCGC (listed as Homo sapiens) [C5/D5.3]		inhibitory effect of peptide on phage binding to C5/D5 (mAb C5/D5): no inhibitory effects
